Our source for the IC50 values is US8471005B2 (Cephalon, Inc., priority 2008, dated 2013).

In one assay the target is T1, JAK2 (Homo sapiens, UniProt O60674).
T1 construct: host or cells: baculovirus expression system
The assay is described as follows: Recombinant Human JAK2 Kinase Assay (TRF). Format: biochemical. The note with it: JAK2 kinase inhibition, 0.2 μM ATP; read-out: JAK2 Potency. A digest of the protocol: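 Kinase activity of baculovirus-expressed JAK2 is followed on a surface-immobilised biotinylated peptide, with the reaction run for 20 min at room temperature in buffer containing 0.2 μM ATP and manganese. Phosphorylation is read with Eu-N1 PY100 antibody.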

The target of the next assay is T2, ALK (Homo sapiens, UniProt Q9UM73).
T2 construct: host or cells: baculovirus expression system
T2 sequence (Q9UM73 19-1620): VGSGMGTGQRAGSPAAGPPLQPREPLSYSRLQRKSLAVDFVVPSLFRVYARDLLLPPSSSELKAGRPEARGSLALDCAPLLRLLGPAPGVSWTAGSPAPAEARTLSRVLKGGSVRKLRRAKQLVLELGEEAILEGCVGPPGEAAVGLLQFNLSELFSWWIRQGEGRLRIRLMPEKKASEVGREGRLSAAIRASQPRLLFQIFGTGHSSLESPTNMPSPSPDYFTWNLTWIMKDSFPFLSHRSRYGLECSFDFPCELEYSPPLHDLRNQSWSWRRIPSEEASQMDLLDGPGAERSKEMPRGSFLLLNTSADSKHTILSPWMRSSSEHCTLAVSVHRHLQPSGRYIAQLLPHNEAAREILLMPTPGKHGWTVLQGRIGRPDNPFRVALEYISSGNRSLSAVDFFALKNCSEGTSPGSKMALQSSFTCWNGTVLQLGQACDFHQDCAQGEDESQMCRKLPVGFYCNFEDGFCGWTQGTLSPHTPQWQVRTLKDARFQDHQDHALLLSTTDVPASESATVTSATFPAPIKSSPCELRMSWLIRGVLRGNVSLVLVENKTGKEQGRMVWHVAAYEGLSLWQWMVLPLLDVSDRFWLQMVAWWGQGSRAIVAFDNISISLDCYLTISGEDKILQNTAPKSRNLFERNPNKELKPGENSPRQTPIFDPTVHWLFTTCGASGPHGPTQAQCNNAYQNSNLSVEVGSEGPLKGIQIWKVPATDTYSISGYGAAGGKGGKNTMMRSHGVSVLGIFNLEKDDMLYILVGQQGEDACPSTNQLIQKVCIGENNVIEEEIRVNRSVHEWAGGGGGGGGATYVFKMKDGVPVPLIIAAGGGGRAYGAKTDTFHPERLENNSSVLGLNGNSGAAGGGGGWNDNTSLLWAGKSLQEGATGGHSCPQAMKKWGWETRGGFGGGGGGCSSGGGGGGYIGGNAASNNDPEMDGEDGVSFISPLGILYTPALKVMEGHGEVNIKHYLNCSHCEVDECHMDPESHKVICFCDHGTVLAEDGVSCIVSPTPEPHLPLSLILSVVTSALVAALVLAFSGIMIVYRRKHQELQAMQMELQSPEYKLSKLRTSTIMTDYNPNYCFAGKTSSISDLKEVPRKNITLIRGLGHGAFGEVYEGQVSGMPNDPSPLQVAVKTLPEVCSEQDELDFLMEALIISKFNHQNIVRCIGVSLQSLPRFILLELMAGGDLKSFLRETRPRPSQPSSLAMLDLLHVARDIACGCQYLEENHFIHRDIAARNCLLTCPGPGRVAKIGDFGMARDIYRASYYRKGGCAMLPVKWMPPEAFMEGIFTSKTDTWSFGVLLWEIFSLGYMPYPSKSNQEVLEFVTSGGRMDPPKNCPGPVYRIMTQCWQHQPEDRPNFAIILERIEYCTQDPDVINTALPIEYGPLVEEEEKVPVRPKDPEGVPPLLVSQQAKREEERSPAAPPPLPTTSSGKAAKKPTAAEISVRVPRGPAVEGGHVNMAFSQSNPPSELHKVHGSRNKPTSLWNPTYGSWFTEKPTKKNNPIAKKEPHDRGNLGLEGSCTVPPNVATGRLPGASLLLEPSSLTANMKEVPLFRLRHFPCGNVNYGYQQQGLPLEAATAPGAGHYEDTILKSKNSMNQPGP
The assay is described as follows: ALK Kinase Assay (ELISA/TRF, PLC-γ substrate). The conditions noted are these: ALK kinase inhibition, 1 μM ATP; read-out: ALK Potency. Format: biochemical. In short, it runs like this:
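Wells were coated with 10 μg/mL phospholipase C-γ substrate in TBS, and the reaction was started by adding 30 ng/ml ALK enzyme and run at 37° C for 15 minutes. Phosphorylated product was detected with Eu-N1-labeled PT66 antibody, and IC50 values came from sigmoidal variable-slope fits of percent inhibition against log concentration.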
A general note: ELISA stands for enzyme-linked immunosorbent assay.

T1 sequence (O60674 whole entry): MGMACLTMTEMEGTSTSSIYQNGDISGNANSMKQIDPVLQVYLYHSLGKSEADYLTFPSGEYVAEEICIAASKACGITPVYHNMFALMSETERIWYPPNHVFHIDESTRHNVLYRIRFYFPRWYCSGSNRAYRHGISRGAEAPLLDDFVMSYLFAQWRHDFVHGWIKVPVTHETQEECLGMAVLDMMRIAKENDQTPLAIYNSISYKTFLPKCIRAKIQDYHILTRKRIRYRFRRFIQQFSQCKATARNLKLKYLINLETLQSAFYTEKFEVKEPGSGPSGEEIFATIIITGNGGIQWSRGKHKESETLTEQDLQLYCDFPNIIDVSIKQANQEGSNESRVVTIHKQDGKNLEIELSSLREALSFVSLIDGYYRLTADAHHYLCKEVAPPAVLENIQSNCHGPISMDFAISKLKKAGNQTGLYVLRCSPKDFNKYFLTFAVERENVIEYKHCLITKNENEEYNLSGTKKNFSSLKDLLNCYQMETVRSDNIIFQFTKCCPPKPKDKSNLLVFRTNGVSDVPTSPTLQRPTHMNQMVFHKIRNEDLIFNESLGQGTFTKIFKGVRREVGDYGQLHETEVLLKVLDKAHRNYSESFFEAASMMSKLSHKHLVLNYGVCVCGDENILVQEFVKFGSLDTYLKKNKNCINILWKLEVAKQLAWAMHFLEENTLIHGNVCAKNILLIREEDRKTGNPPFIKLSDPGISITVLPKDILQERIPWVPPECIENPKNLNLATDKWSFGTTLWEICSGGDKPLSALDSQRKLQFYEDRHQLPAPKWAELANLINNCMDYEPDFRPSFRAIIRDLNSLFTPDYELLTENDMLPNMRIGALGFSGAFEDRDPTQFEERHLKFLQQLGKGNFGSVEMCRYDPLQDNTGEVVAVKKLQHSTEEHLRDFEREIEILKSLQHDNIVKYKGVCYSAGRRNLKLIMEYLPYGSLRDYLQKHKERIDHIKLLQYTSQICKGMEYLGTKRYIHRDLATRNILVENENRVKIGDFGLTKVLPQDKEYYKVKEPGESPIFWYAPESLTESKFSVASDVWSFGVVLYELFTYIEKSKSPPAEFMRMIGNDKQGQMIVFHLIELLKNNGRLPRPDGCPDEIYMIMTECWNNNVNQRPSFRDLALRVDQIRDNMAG

Take `COc1cc(CN2CCN(C)CC2)ccc1Nc1ncc2ccc(-c3ccccc3OC)n2n1` [Example 1252, [2-Methoxy-4-(4-methyl-piperazin-1-ylmethyl)-phenyl]-[7-(2-methoxy-phenyl)-pyrrolo[2,1-f][1,2,4]triazin-2-yl]-amine]: the figures for the IC50 at JAK2 and at ALK were 100 to 1000 nM and under 100 nM, respectively.
Taken in the same sequence, the figures for `COc1cc(C2(C#N)CCC(O)CC2)ccc1Nc1ncc2ccc(-c3ccccc3N(C)S(C)(=O)=O)n2n1` (stereo not drawn) [Example 1253, N-(2-{2-[4-(1-Cyano-4-hydroxy-cyclohexyl)-2-methoxy-phenylamino]-pyrrolo[2,1-f][1,2,4]triazin-7-yl}-phenyl)-N-methyl-methanesulfonamide] were 100 to 1000 nM and under 100 nM.
With `COc1cc(C2(NC(=O)C(F)(F)F)CCC2)ccc1Nc1ncc2ccc(-c3ccccc3N(C)S(C)(=O)=O)n2n1` [Example 1254, 2,2,2-Trifluoro-N-[1-(4-{7-[2-(methanesulfonyl-methyl-amino)-phenyl]-pyrrolo[2,1-f][1,2,4]triazin-2-ylamino}-3-methoxy-phenyl)-cyclobutyl]-acetamide], the IC50 on JAK2 was 1000 to 10000 nM; on ALK it was 100 to 1000 nM.
Taken in the same sequence, the figures for `COc1cc(C2CCN(CC(N)=O)CC2)ccc1Nc1ncc2c(C)cc(-c3ccccc3N(C)S(C)(=O)=O)n2n1` [Example 1255, 2-[4-(4-{7-[2-(Methanesulfonyl-methyl-amino)-phenyl]-5-methyl-pyrrolo[2,1-f][1,2,4]triazin-2-ylamino}-3-methoxy-phenyl)-piperidin-1-yl]-acetamide] were 100 to 1000 nM and under 100 nM.
Regarding `COc1cc(C2CCN(CC(N)=O)CC2)ccc1Nc1ncc2ccc(-c3cn(C)nc3N(C)S(C)(=O)=O)n2n1` [Example 1256, 2-[4-(4-{7-[3-(Methanesulfonyl-methyl-amino)-1-methyl-1H-pyrazol-4-yl]-pyrrolo[2,1-f][1,2,4]triazin-2-ylamino}-3-methoxy-phenyl)-piperidin-1-yl]-acetamide], the IC50 was 1000 to 10000 nM on JAK2 and under 100 nM at ALK.
Taken in the same sequence, the figures for `COc1cc(C2CCN(CC(N)=O)CC2)ccc1Nc1ncc2ccc(-c3cccnc3N(C)S(C)(=O)=O)n2n1` [Example 1257, 2-[4-(4-{7-[2-(Methanesulfonyl-methyl-amino)-pyridin-3-yl]-pyrrolo[2,1-f][1,2,4]triazin-2-ylamino}-3-methoxy-phenyl)-piperidin-1-yl]-acetamide] were 1000 to 10000 nM and under 100 nM.
With `CN(c1ncccc1-c1ccc2cnc(Nc3ccc(C4CCN(CC(N)=O)CC4)cc3)nn12)S(C)(=O)=O` [Example 1258, 2-[4-(4-{7-[2-(Methanesulfonyl-methyl-amino)-pyridin-3-yl]-pyrrolo[2,1-f][1,2,4]triazin-2-ylamino}-phenyl)-piperidin-1-yl]-acetamide], the IC50 on JAK2 and at ALK was under 100 nM throughout.
`COc1cc(C2CCN(CC(N)=O)CC2)ccc1Nc1ncc2c(O)cc(-c3ccccc3N(C)S(C)(=O)=O)n2n1` [Example 1259, 2-[4-(4-{5-Hydroxy-7-[2-(methanesulfonyl-methyl-amino)-phenyl]-pyrrolo[2,1-f][1,2,4]triazin-2-ylamino}-3-methoxy-phenyl)-piperidin-1-yl]-acetamide]: the IC50 at JAK2 is 1000 to 10000 nM; on ALK it was under 100 nM.
The corresponding values for `COc1ccccc1-c1cc(O)c2cnc(Nc3ccc(C4CCN(CC(N)=O)CC4)cc3)nn12` [Example 1260, 2-(4-{4-[5-Hydroxy-7-(2-methoxy-phenyl)-pyrrolo[2,1-f][1,2,4]triazin-2-ylamino]-phenyl}-piperidin-1-yl)-acetamide] are under 100 nM and 100 to 1000 nM.
Consider `COc1cc(C2CCN(CC(N)=O)CC2)ccc1Nc1ncc2c(C)cc(-c3ccccc3OC)n2n1` [Example 1262, 2-(4-{3-Methoxy-4-[7-(2-methoxy-phenyl)-5-methyl-pyrrolo[2,1-f][1,2,4]triazin-2-ylamino]-phenyl}-piperidin-1-yl)-acetamide], for which the figures for the IC50 on JAK2 and at ALK were 100 to 1000 nM and under 100 nM, respectively.
The corresponding values for `COc1cc(C2CCNCC2)ccc1Nc1ncc2c(C)cc(-c3ccccc3N(C)S(C)(=O)=O)n2n1` [Example 1263, N-{2-[2-(2-Methoxy-4-piperidin-4-yl-phenylamino)-5-methyl-pyrrolo[2,1-f][1,2,4]triazin-7-yl]-phenyl}-N-methyl-methanesulfonamide] are 100 to 1000 nM and under 100 nM.
Taken in the same sequence, the figures for `COCCOc1ccccc1-c1ccc2cnc(Nc3ccc(C4CCN(CC(N)=O)CC4)cc3OC)nn12` [Example 1271, 2-[4-(3-Methoxy-4-{7-[2-(2-methoxy-ethoxy)-phenyl]-pyrrolo[2,1-f][1,2,4]triazin-2-ylamino}-phenyl)-piperidin-1-yl]-acetamide] were 1000 to 10000 nM and 100 to 1000 nM.
As to `COc1cc(N2CCC(N3CCOCC3)CC2)ccc1Nc1ncc2ccc(-n3cccn3)n2n1` [Example 1272, [2-Methoxy-4-(4-morpholin-4-yl-piperidin-1-yl)-phenyl]-(7-pyrazol-1-yl-pyrrolo[2,1-f][1,2,4]triazin-2-yl)-amine], the figures for the IC50 on JAK2 and at ALK were 1000 to 10000 nM and 100 to 1000 nM, respectively.
On to `COc1ccc(-c2ccc3cnc(Nc4ccc(C5CCN(CC(N)=O)CC5)cc4OC)nn23)c(N(C)S(C)(=O)=O)c1` [Example 1273, 2-[4-(4-{7-[2-(Methanesulfonyl-methyl-amino)-4-methoxy-phenyl]-pyrrolo[2,1-f][1,2,4]triazin-2-ylamino}-3-methoxy-phenyl)-piperidin-1-yl]-acetamide], for which the IC50 on JAK2 is 1000 to 10000 nM; on ALK it was under 100 nM.
Taken in the same sequence, the figures for `COc1cc(C2=CCN(CC(N)=O)CC2)ccc1Nc1ncc2ccc(-c3ccccc3OC)n2n1` [Example 1274, 2-(4-{3-Methoxy-4-[7-(2-methoxy-phenyl)-pyrrolo[2,1-f][1,2,4]triazin-2-ylamino]-phenyl}-3,6-dihydro-2H-pyridin-1-yl)-acetamide] were 100 to 1000 nM and under 100 nM.
Take `COc1cc(C2CCN(C(C)C(N)=O)CC2)ccc1Nc1ncc2ccc(-c3ccccc3OC)n2n1` (stereo not drawn) [Example 1275, 2-(4-{3-Methoxy-4-[7-(2-methoxy-phenyl)-pyrrolo[2,1-f][1,2,4]triazin-2-ylamino]-phenyl}-piperidin-1-yl)-propionamide]: the IC50 at JAK2 was 100 to 1000 nM; at ALK it was under 100 nM.
Consider `COc1cc(C2CCN(CC(=O)N3CCNCC3)CC2)ccc1Nc1ncc2ccc(-c3ccccc3OC)n2n1` [Example 1276, 2-(4-{3-Methoxy-4-[7-(2-methoxy-phenyl)-pyrrolo[2,1-f][1,2,4]triazin-2-ylamino]-phenyl}-piperidin-1-yl)-1-piperazin-1-yl-ethanone], for which the IC50 on JAK2 was 100 to 1000 nM; on ALK, under 100 nM.
The corresponding values for `COc1cc(C2CCN(CC(=O)OC(C)(C)C)CC2)ccc1Nc1ncc2ccc(-c3ccccc3OC)n2n1` [Example 1277, (4-{3-Methoxy-4-[7-(2-methoxy-phenyl)-pyrrolo[2,1-f][1,2,4]triazin-2-ylamino]-phenyl}-piperidin-1-yl)-acetic acid tert-butyl ester] are 1000 to 10000 nM and 100 to 1000 nM.
